From ChEMBL document CHEMBL1147493, “Small molecule biaryl FSH receptor agonists. Part 2: Lead optimization via parallel synthesis” (Bioorg Med Chem Lett, 2004)
Values joined by “and” are separate entries in the source; they are usually repeats but may differ in a detail not shown here. Equal values may be shown once.

Legend:
Type in all cases: functional
[1] = molecular target: T1, Follicle-stimulating hormone receptor (Homo sapiens, UniProt P23945); assay: Agonistic activity against human follicle stimulating hormone receptor in CHO-hFSHR-luciferase assay.
T1 sequence (P23945 whole entry): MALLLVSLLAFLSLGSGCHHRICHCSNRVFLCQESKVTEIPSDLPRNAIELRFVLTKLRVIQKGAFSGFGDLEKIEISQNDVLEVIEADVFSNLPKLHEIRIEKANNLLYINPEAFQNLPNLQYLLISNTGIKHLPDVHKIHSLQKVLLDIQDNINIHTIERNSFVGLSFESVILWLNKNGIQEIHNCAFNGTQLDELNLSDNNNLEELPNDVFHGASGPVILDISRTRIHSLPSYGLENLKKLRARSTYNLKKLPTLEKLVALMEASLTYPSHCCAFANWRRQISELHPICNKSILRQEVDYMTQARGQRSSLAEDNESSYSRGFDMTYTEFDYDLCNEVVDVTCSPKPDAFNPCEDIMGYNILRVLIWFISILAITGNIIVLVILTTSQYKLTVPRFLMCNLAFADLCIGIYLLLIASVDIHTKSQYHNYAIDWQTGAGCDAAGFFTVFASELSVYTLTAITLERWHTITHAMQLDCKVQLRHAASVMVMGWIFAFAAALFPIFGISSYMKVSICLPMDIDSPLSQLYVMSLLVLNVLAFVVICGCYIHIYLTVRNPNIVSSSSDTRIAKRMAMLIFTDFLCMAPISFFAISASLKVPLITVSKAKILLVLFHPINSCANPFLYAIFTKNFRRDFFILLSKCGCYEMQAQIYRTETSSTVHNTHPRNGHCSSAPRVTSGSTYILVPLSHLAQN

[2] = molecular target: T1, Follicle-stimulating hormone receptor; assay: Agonistic activity in CHO-hFSHR cell-based cAMP accumulation assay
[3] = molecular target: T2, Follicle-stimulating hormone receptor (Homo sapiens) (UniProt P23945); assay: Agonistic efficacy in CHO-hFSHR cell-based cAMP accumulation assay relative to FSH(=100%)
T2 sequence (whole entry): T1 sequence (P23945 whole entry)

[4] = molecular target: T1, Follicle-stimulating hormone receptor; assay: Agonistic activity in CHO-hFollicle stimulating hormone receptor cell-based cAMP accumulation assay

SMILES	EC50 [1]	EC50 [2]	Efficacy [3]	EC50 [4]
CCCCCCCCN1CC(=O)N(C)[C@@H](Cc2ccc(-c3ccc(OC)c(OC)c3)cc2)C1=O	3.3 µM			
CCCCCCCCN1C(=O)[C@@H](Cc2ccc(-c3cc(OC)c(OC)c(OC)c3)cc2)N(C)C(=O)[C@H]1C	1.6 µM			
CCCCCCCCCN1CC(=O)N(C)[C@@H](Cc2ccc(-c3cc(OC)c(OC)c(OC)c3)cc2)C1=O	0.9 µM			
CCCCCCCCN1CC(=O)N(C)[C@@H](Cc2ccc(-c3cc(C)c(OC)c(C)c3)cc2)C1=O	1.2 µM			
CCCCCCN1C(=O)[C@H](Cc2ccc(-c3cccc(CN(CCCC)C(C)=O)c3)cc2)N(C)C(=O)[C@@H]1C	0.15 µM			
CCCCCCCCN1CC(=O)N(C)[C@@H](Cc2ccc(-c3cc(OC)c(OC)c(OC)c3)cc2)C1=O	0.4 µM			
CCCCCCNC(=O)CN1CC(=O)N[C@@H](Cc2ccc(-c3cc(OC)c(OC)c(OC)c3)cc2)C1=O	> 20 µM			
CCCCCCCCN1CC(=O)N(C)[C@@H](Cc2ccc(-c3cc(OC)cc(OC)c3)cc2)C1=O	5 µM			
CCCCCCCN1CC(=O)N(C)[C@@H](Cc2ccc(-c3cc(OC)c(OC)c(OC)c3)cc2)C1=O	2.3 µM			
CCCCCN1CC(=O)N(C)[C@@H](Cc2ccc(-c3cc(OC)c(OC)c(OC)c3)cc2)C1=O	9 µM			
CCCCCCNC(=O)CN1CC(=O)N(CCC)[C@@H](Cc2ccc(-c3cc(OC)c(OC)c(OC)c3)cc2)C1=O	> 20 µM			
CCCCCCN1C(=O)[C@H](Cc2ccc(-c3cc(OC)c(OC)c(OC)c3)cc2)N(C)C(=O)[C@@H]1C	0.1 µM			
CCCCCCCN1C(=O)[C@H](Cc2ccc(-c3cc(OC)c(OC)c(OC)c3)cc2)N(C)C(=O)[C@@H]1C	0.025 µM		54%	0.032 µM
CCCCCCCCN1C(=O)[C@@H](Cc2ccc(-c3cc(OC)c(OC)c(OC)c3)cc2)N(C)C(=O)[C@@H]1C	0.068 µM			
CCCCCCCCN1C(=O)[C@H](Cc2ccc(-c3cc(OC)c(OC)c(OC)c3)cc2)N(C)C(=O)[C@H]1C	0.12 µM			
CCCCCCN1CC(=O)N(C)[C@@H](Cc2ccc(-c3cc(OC)c(OC)c(OC)c3)cc2)C1=O	3 µM			
CCCCCCN1CC(=O)N(C)[C@H](Cc2ccc(-c3cc(OC)c(OC)c(OC)c3)cc2)C1=O	> 50 µM			
CCCCCCNC(=O)CN1CC(=O)N(CC)[C@@H](Cc2ccc(-c3cc(OC)c(OC)c(OC)c3)cc2)C1=O	> 20 µM			

Molecules with a lower EC50 [1], results first:

EC50 [1]	EC50 [2]	Efficacy [3]	EC50 [4]	SMILES
0.003 µM				CCCCCCNC(=O)CN1CC(=O)N(C)[C@@H](Cc2ccc(-c3cc(OC)c(OC)c(OC)c3)cc2)C1=O
0.0072 µM	0.0095 µM	85%		CCCCCCN1C(=O)[C@H](Cc2ccc(-c3cccc(CN(CCCC)C(=O)NC)c3)cc2)N(C)C(=O)[C@@H]1C
0.014 µM	0.035 µM	57%		CCCCCCCCN1C(=O)[C@H](Cc2ccc(-c3cccc(CN(CCCC)C(C)=O)c3)cc2)N(C)C(=O)[C@@H]1C
0.0018 µM				CCCCCCCCN1C(=O)[C@H](Cc2ccc(-c3cccc(CN(COC)C(=O)OC)c3)cc2)N(C)C(=O)[C@@H]1C
0.013 µM	0.032 µM	47%		CCCCCCCCN1C(=O)[C@H](Cc2ccc(-c3cc(OC)c(OC)c(OC)c3)cc2)N(C)C(=O)[C@@H]1C
0.0097 µM				CCCCCCCCN1C(=O)[C@H](Cc2ccc(-c3cccc(CN(COC)C(C)=O)c3)cc2)N(C)C(=O)[C@@H]1C
0.0036 µM				CCCCCCCCN1C(=O)[C@H](Cc2ccc(-c3cccc(CN(COC)C(=O)NC)c3)cc2)N(C)C(=O)[C@@H]1C
0.0089 µM	0.048 µM and 0.059 µM			CCCCCCN1C(=O)[C@H](Cc2ccc(-c3cccc(CN(CCCC)C(=O)OC)c3)cc2)N(C)C(=O)[C@@H]1C
0.0027 µM	0.031 µM	49%		CCCCCCCCN1C(=O)[C@H](Cc2ccc(-c3cccc(CN(CCCC)C(=O)OC)c3)cc2)N(C)C(=O)[C@@H]1C
0.0017 µM				CCCCCNC(=O)CN1CC(=O)N(C)[C@@H](Cc2ccc(-c3cccc(CN(CCCC)C(=O)NC)c3)cc2)C1=O
0.0012 µM	0.0079 µM	72%		CCCCCCCCN1C(=O)[C@H](Cc2ccc(-c3cccc(CN(CCCC)C(=O)NC)c3)cc2)N(C)C(=O)[C@@H]1C
